Results published in the supplement of paper PMC10307832.

Tests used:
Assay in all cases: relative viability (nuclei count vs DMSO), 5 days (fraction); higher = more cells survive
Lapatinib + Dasatinib = compound: CS(=O)(=O)CCNCc1ccc(-c2ccc3ncnc(Nc4ccc(OCc5cccc(F)c5)c(Cl)c4)c3c2)o1 [Lapatinib] + Cc1nc(Nc2ncc(C(=O)Nc3c(C)cccc3Cl)s2)cc(N2CCN(CCO)CC2)n1 [Dasatinib] (partner 0.075 µM)
Procedure, shortened: (§1)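 Lung cancer cell lines, seeded in 1536-well plates, were treated the following day by pin tool with a single drug or with five library-drug doses (not always all listed) in √10 steps on top of a fixed anchor-drug dose. Cells were fixed and nuclei stained in one step after 5 days, and nuclei were counted. Relative viability is the nuclei count for treated wells divided by that for vehicle wells, reported as medians of duplicate plates.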

Lapatinib + Trametinib = compound: CS(=O)(=O)CCNCc1ccc(-c2ccc3ncnc(Nc4ccc(OCc5cccc(F)c5)c(Cl)c4)c3c2)o1 [Lapatinib] + CC(=O)Nc1cccc(-n2c(=O)n(C3CC3)c(=O)c3c(Nc4ccc(I)cc4F)n(C)c(=O)c(C)c32)c1 [Trametinib] (partner 0.02 µM)
Procedure, shortened: as §1

Lapatinib + Olaparib = compound: CS(=O)(=O)CCNCc1ccc(-c2ccc3ncnc(Nc4ccc(OCc5cccc(F)c5)c(Cl)c4)c3c2)o1 [Lapatinib] + O=C(c1cc(Cc2n[nH]c(=O)c3ccccc23)ccc1F)N1CCN(C(=O)C2CC2)CC1 [Olaparib] (partner 8 µM)
Procedure, shortened: as §1

Wnt-C59 + Pictilisib = compound: CC1=NC=CC(=C1)C2=CC=C(C=C2)CC(=O)NC3=CC=C(C=C3)C4=CN=CC=C4 [Wnt-C59] + CS(=O)(=O)N1CCN(Cc2cc3nc(-c4cccc5[nH]ncc45)nc(N4CCOCC4)c3s2)CC1 [Pictilisib] (partner 1 µM)
Procedure, shortened: as §1

Cell Line	relative viability (Lapatinib + Dasatinib; first compound 0.06325 µM)	relative viability (Lapatinib + Dasatinib; first compound 0.2 µM)	relative viability (Lapatinib + Dasatinib; first compound 0.6325 µM)	relative viability (Lapatinib + Dasatinib; first compound 2 µM)	relative viability (Lapatinib + Trametinib; first compound 0.06325 µM)	relative viability (Lapatinib + Trametinib; first compound 0.2 µM)	relative viability (Lapatinib + Trametinib; first compound 0.6325 µM)	relative viability (Lapatinib + Trametinib; first compound 2 µM)	relative viability (Lapatinib + Olaparib; first compound 0.06325 µM)	relative viability (Lapatinib + Olaparib; first compound 0.2 µM)	relative viability (Lapatinib + Olaparib; first compound 0.6325 µM)	relative viability (Lapatinib + Olaparib; first compound 2 µM)	relative viability (Wnt-C59 + Pictilisib; first compound 0.001 µM)	relative viability (Wnt-C59 + Pictilisib; first compound 0.01 µM)	relative viability (Wnt-C59 + Pictilisib; first compound 0.03162 µM)	relative viability (Wnt-C59 + Pictilisib; first compound 0.1 µM)	relative viability (Lapatinib + Dasatinib; first compound 0.02 µM)	relative viability (Lapatinib + Trametinib; first compound 0.02 µM)	relative viability (Lapatinib + Olaparib; first compound 0.02 µM)
NCI-H1915	0.285	0.337	0.293	0.297	0.29	0.3	0.292	0.304	0.277	0.275	0.243	0.237	0.97	0.922	0.837	0.958	–	–	–
NCI-H1944	0.153	0.204	0.243	0.207	0.35	0.388	0.322	0.288	0.389	0.381	0.354	0.327	0.372	0.312	0.322	0.336	0.185	0.41	0.397
NCI-H1975	0.316	0.378	0.41	0.219	0.282	0.328	0.384	0.254	0.771	0.772	0.76	0.503	0.282	0.294	0.326	0.282	0.417	0.264	0.85
NCI-H1993	–	0.55	0.516	0.563	–	0.57	0.496	0.477	–	0.901	0.965	0.661	0.979	0.833	0.902	0.84	0.564	0.458	0.961
NCI-H2009	0.244	0.358	0.33	0.286	0.236	0.295	0.294	0.268	0.712	0.694	0.696	0.567	0.744	0.825	0.841	0.784	0.282	0.266	0.666
NCI-H2023	–	0.516	0.619	0.381	0.397	0.429	0.433	0.328	0.455	0.436	0.444	0.397	0.27	0.244	0.238	0.235	0.458	–	0.435
NCI-H2085	0.212	0.284	0.16	0.204	0.56	0.511	0.559	0.452	0.795	0.8	0.711	0.581	0.502	0.449	0.41	0.45	0.241	0.404	0.744
NCI-H2087	0.609	0.874	0.988	0.854	0.186	0.182	0.217	0.191	0.412	0.625	0.516	0.503	0.94	0.816	0.819	0.907	–	0.208	0.56
NCI-H2126	0.404	0.533	0.559	0.387	0.417	0.467	0.533	0.402	0.757	0.894	0.825	0.794	0.451	0.446	0.489	0.479	–	0.536	0.933
NCI-H2170	0.272	0.276	0.419	0.165	0.82	0.792	0.683	0.238	0.483	0.501	0.459	0.118	0.3	0.279	0.309	0.383	0.394	0.874	0.564
NCI-H2228	0.426	0.606	0.52	0.49	0.441	0.609	0.583	0.27	0.537	0.728	0.482	0.436	0.479	0.505	0.573	0.252	0.397	0.112	0.562
NCI-H2347	0.315	0.299	0.329	0.25	0.236	0.278	0.302	0.281	0.568	0.598	0.629	0.527	0.628	0.566	0.86	0.634	–	0.298	0.636
NCI-H2405	0.181	0.208	0.164	0.232	0.409	–	0.52	0.438	0.763	–	0.854	0.754	0.433	–	0.406	0.432	0.215	–	–
NCI-H3122	0.407	0.85	0.675	0.859	0.203	0.207	0.218	0.248	0.576	0.595	0.627	0.558	0.61	0.642	0.626	0.518	0.736	0.256	0.582
PC-3 [JPC-3]	0.87	1	0.977	0.624	0.675	–	0.721	0.412	1.09	–	1.16	0.883	0.832	0.765	0.822	0.72	0.877	–	–
PC-14	0.198	0.251	0.159	0.0375	0.674	0.796	0.827	0.0695	0.286	0.291	0.263	0.217	0.761	0.665	0.715	0.553	0.25	0.768	0.209
RERF-LC-KJ	0.545	0.732	0.75	0.36	0.903	0.758	0.792	0.642	0.896	0.947	0.811	0.682	0.574	0.543	0.627	0.54	0.812	0.854	0.934
